Results: patent US12509457B2, “Bicyclic nitrogen containing heterocycles as inhibitors of salt-induced kinase SIK2” (priority 2019, dated 2025)
Read-outs that look alike come from different tables or passages of the source.

Assays:
Assay type in all cases: biochemical
SIK2 = SIK2 (Homo sapiens, UniProt Q9H0K1); test: SIK2 kinase assay, IMAP fluorescence polarization; settings: 50 or 100 μM ATP; average; read-out: SIK2-AVERAGE Ki
SIK1 = SIK1 (Homo sapiens, UniProt P57059); test: SIK1 kinase assay, IMAP fluorescence polarization; settings: 50 or 100 μM ATP; average; read-out: SIK1-AVERAGE Ki
SIK3 = SIK3 (Homo sapiens, UniProt Q9Y2K2); test: SIK3 kinase assay, IMAP fluorescence polarization; settings: 50 or 100 μM ATP; average; read-out: SIK3-AVERAGE Ki
Abl = Abl (Homo sapiens, UniProt P00519); test: Abl kinase assay, IMAP fluorescence polarization; settings: 50 or 100 μM ATP; average; read-out: Abl-AVERAGE Ki
Src = Src (Homo sapiens, UniProt P12931); test: Src kinase assay, IMAP fluorescence polarization; settings: 50 or 100 μM ATP; average; read-out: Src-AVERAGE Ki
EPHA2 = EPHA2 (Homo sapiens, UniProt P29317); test: EPHA2 kinase assay, IMAP fluorescence polarization
EPHA2, sequence (P29317 24-976): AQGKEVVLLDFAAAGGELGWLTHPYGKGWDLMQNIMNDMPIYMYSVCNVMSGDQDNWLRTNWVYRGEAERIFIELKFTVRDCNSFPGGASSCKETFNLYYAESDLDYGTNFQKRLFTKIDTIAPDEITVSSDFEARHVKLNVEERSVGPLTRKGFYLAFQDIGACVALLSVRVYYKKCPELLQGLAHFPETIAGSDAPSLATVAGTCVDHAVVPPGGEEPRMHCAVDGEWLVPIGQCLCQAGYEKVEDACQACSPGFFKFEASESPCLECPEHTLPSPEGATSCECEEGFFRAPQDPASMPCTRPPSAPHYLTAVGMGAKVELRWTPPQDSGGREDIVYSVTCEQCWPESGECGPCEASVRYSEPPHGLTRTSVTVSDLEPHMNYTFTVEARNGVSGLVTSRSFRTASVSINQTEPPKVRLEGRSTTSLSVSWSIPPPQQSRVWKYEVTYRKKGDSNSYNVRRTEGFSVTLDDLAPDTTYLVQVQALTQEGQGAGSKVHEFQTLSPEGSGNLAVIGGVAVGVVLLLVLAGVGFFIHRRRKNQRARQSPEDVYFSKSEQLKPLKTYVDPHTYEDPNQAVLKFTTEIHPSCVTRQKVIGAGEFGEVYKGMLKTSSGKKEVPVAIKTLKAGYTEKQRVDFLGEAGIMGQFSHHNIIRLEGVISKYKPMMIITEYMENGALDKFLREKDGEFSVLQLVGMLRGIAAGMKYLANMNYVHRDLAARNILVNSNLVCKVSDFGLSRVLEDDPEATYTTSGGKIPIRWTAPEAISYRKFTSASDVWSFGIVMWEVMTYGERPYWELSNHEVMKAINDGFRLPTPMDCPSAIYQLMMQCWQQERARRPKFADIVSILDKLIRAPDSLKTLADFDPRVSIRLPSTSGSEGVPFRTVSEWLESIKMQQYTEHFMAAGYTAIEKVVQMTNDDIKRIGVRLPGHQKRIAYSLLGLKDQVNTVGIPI

Src, sequence (P12931 whole entry): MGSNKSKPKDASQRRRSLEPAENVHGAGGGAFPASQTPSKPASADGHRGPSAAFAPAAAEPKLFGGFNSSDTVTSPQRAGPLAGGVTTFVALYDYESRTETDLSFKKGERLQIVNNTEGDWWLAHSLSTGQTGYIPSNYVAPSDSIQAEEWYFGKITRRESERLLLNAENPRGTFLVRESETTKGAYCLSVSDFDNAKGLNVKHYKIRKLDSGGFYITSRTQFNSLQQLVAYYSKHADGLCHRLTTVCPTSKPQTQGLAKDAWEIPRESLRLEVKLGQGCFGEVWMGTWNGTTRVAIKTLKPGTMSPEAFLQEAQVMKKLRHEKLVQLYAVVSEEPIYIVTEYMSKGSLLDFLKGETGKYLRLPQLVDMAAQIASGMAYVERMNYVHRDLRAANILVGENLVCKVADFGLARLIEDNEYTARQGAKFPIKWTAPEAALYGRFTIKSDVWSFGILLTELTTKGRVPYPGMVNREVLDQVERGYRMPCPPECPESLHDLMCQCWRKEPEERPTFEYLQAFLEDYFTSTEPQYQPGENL
SIK2, sequence (Q9H0K1 whole entry): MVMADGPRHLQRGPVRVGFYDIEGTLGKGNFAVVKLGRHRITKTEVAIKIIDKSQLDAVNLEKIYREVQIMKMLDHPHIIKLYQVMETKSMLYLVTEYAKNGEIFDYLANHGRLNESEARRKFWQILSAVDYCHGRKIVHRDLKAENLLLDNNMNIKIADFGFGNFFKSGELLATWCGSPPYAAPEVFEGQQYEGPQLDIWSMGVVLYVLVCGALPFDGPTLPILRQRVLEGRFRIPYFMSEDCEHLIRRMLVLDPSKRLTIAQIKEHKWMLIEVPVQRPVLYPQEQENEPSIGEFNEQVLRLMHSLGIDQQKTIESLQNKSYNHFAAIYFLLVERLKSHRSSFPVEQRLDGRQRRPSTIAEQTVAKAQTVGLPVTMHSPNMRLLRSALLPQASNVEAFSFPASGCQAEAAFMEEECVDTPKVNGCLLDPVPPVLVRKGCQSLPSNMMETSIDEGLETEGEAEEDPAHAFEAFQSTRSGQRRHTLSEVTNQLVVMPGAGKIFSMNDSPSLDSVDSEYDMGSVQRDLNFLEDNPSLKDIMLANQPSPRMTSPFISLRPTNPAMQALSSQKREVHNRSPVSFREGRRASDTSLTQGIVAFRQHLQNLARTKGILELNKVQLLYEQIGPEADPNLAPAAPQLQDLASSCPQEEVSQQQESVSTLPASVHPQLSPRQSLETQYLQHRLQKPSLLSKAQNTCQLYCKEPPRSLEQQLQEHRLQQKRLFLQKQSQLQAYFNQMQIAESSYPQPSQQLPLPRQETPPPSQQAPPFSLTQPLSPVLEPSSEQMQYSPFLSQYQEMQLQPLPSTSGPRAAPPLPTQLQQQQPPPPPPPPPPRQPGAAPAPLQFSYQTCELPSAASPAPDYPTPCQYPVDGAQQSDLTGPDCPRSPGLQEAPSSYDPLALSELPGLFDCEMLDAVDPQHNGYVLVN
SIK1, sequence (P57059 whole entry): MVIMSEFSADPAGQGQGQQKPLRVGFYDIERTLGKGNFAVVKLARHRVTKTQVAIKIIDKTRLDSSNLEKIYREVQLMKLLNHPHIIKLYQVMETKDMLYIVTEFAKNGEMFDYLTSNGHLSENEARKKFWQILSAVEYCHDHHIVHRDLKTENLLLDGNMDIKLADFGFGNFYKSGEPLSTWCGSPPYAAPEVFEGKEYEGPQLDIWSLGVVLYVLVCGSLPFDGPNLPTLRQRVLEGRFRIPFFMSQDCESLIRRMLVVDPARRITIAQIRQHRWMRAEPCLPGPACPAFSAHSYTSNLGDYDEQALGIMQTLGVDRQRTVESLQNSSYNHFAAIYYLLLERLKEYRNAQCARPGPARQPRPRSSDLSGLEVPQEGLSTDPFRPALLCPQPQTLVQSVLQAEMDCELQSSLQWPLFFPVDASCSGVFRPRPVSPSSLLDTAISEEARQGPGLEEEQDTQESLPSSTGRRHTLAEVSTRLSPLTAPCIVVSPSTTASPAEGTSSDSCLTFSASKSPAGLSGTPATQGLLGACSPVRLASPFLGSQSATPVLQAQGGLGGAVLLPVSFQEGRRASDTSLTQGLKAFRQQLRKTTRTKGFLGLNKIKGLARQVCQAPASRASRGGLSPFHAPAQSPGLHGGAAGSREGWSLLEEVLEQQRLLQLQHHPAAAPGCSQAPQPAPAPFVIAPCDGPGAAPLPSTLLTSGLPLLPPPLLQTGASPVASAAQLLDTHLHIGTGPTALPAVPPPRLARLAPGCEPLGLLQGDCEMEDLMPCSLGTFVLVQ
Abl, sequence (P00519 whole entry): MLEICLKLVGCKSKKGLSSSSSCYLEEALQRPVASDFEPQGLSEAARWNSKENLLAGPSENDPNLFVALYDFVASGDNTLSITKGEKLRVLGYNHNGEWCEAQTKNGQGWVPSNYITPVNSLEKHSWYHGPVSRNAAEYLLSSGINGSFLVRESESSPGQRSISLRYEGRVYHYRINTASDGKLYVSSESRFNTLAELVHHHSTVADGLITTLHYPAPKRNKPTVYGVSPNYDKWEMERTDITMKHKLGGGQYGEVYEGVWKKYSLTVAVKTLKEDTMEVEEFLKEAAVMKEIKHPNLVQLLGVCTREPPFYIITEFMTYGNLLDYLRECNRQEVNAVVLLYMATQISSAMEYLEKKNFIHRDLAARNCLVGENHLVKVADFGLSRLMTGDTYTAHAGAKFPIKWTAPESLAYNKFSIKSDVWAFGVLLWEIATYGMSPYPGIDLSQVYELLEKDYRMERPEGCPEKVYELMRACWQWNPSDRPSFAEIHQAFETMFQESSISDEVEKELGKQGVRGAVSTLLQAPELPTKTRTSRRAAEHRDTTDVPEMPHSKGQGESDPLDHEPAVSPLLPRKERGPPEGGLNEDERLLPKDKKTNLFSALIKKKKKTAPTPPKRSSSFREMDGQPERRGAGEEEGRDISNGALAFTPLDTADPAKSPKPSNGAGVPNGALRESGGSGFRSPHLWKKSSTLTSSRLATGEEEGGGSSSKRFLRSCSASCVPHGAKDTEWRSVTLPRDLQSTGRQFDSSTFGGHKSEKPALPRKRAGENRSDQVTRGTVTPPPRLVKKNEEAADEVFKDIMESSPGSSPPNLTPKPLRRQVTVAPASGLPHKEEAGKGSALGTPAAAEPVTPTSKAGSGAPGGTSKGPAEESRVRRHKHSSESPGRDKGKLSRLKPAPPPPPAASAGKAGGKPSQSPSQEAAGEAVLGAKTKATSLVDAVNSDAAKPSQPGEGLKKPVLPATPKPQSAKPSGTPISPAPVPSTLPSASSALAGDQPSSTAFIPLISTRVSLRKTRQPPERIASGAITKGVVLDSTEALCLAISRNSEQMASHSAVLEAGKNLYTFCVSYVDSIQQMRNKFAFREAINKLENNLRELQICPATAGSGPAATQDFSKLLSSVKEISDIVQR

| Compound | Ki (SIK2) [nM] | Ki (SIK1) [nM] | Ki (SIK3) [nM] | Ki (Abl) [nM] | Ki (Src) [nM] | Ki (EPHA2) [nM] | Ki (EPHA2; 50 or 100 μM ATP, average) [nM] |
| --- | --- | --- | --- | --- | --- | --- | --- |
| Cc1cccc(F)c1N1Cc2cnc(N)cc2N(C2CNC2)C1=O [Example 4, 7-amino-1-(azetidin-3-yl)-3-(2-fluoro-6-methyl-phenyl)-4H-pyrido[4,3-d]pyrimidin-2-one] | 4.08 | 7.92 | 35.3 | 187 | 547 | 221 | – |
| Cc1cccc(F)c1N1Cc2cnc(N)cc2N(CC2CCNCC2)C1=O [Example 2, 7-amino-3-(2-fluoro-6-methyl-phenyl)-1-(4-piperidylmethyl)-4H-pyrido[4,3-d]pyrimidin-2-one] | 0.163 | 0.94 | 0.55 | 2.34 | 23.1 | – | 38.7 |
| Cc1cccc(F)c1N1Cc2cnc(N)cc2N([C@@H]2CCNC2)C1=O [Example 47, 7-Amino-3-(2-fluoro-6-methyl-phenyl)-1-[(3R)-pyrrolidin-3-yl]-4H-pyrido[4,3-d]pyrimidin-2-one] | 1.32 | 2.6 | 16.6 | > 1000 | > 1000 | – | 247 |
| Cc1cccc(F)c1N1Cc2cnc(N)nc2N([C@@H]2CCCCN(C)C2)C1=O [Example 38, 7-amino-3-(2-fluoro-6-methyl-phenyl)-1-[(3R)-1-methylazepan-3-yl]-4H-pyrimido[4,5-d]pyrimidin-2-one] | 2.7 | 9.57 | 46.7 | 144 | 678 | – | 188 |
| Cc1cccc(F)c1N1Cc2cnc(N(C)C)cc2N([C@H]2CC[C@@H](N(C)C)CC2)C1=O [Example 41, cis-7-(dimethylamino)-1-[4-(dimethylamino)cyclohexyl]-3-(2-fluoro-6-methyl-phenyl)-4H-pyrido[4,3-d]pyrimidin-2-one] | 102 | 478 | 565 | > 10000 | > 10000 | – | > 10000 |
| Cc1cccc(F)c1N1Cc2cnc(N)nc2N([C@H]2CCCN(C)CC2)C1=O [Example 35, 7-amino-3-(2-fluoro-6-methyl-phenyl)-1-[(4S)-1-methylazepan-4-yl]-4H-pyrimido[4,5-d]pyrimidin-2-one] | 0.383 | 1.17 | 2.12 | 105 | 287 | 38.7 | – |
| Cc1cccc(F)c1N1Cc2cnc(N)nc2N([C@H]2CCCN(C)C2)C1=O [Example 37, 7-amino-3-(2-fluoro-6-methyl-phenyl)-1-[(3S)-1-methyl-3-piperidyl]-4H-pyrimido[4,5-d]pyrimidin-2-one] | 0.703 | 2.5 | 6.65 | 53.2 | 80.5 | – | 25.8 |
| Cc1cccc(F)c1N1Cc2cnc(N)nc2N([C@H]2CCCCN(C)C2)C1=O [Example 36, 7-amino-3-(2-fluoro-6-methyl-phenyl)-1-[(3S)-1-methylazepan-3-yl]-4H-pyrimido[4,5-d]pyrimidin-2-one] | 0.68 | 1.85 | 8.61 | 62.1 | 138 | – | 124 |
| Cc1cccc(F)c1N1Cc2cnc(N)nc2N([C@H]2CC[C@@H](N(C)C)CC2)C1=O [Example 39, cis-7-amino-1-[4-(dimethylamino)cyclohexyl]-3-(2-fluoro-6-methyl-phenyl)-4H-pyrimido[4,5-d]pyrimidin-2-one] | 0.444 | 1.66 | 3.87 | 32.5 | 86 | – | 35.8 |
| Cc1cccc(F)c1N1Cc2cnc(N)cc2N([C@H]2CCCNCC2)C1=O [Example 54, 7-amino-1-[(4S)-azepan-4-yl]-3-(2-fluoro-6-methyl-phenyl)-4H-pyrido[4,3-d]pyrimidin-2-one] | 0.719 | 2.08 | 4.14 | 64.9 | 423 | – | 213 |
| Cc1cccc(F)c1N1Cc2cnc(N)nc2N([C@@H]2CCCN(C)CC2)C1=O [Example 34, 7-amino-3-(2-fluoro-6-methyl-phenyl)-1[(4R)-1-methylazepan-4-yl]-4H-pyrimido[4,5-d]pyrimidin-2-one] | 0.374 | 0.733 | 1.48 | 33.6 | 138 | 29.6 | – |
| Cc1cccc(F)c1N1Cc2cnc(N)nc2N([C@@H]2CCCN(C)C2)C1=O [Example 42, 7-Amino-3-(2-fluoro-6-methyl-phenyl)-1-[(3R)-1-methyl-3-piperidyl]-4H-pyrimido[4,5-d]pyrimidin-2-one] | 1.52 | 3.24 | 14 | 241 | 702 | – | 66.8 |
| Cc1cccc(Cl)c1N1Cc2cnc(N)cc2N(C2CNC2)C1=O [Example 8, 7-amino-1-(azetidin-3-yl)-3-(2-chloro-6-methyl-phenyl)-4H-pyrido[4,3-d]pyrimidin-2-one] | 4.49 | 7.76 | 45.6 | > 1000 | 158 | 149 | – |
| Cc1cccc(F)c1N1Cc2cnc(N)cc2N([C@H]2CCCCNC2)C1=O [Example 53, 7-amino-1-[(3S)-azepan-3-yl]-3-(2-fluoro-6-methyl-phenyl)-4H-pyrido[4,3-d]pyrimidin-2-one] | 2.24 | 9.45 | 68 | 517 | 2870 | – | 815 |

The next lines start with the values.

| Ki (SIK2) [nM] | Ki (SIK1) [nM] | Ki (SIK3) [nM] | Ki (Abl) [nM] | Ki (Src) [nM] | Ki (EPHA2) [nM] | Ki (EPHA2; 50 or 100 μM ATP, average) [nM] | Compound |
| --- | --- | --- | --- | --- | --- | --- | --- |
| 1.11 | 2.8 | 20.8 | > 1000 | > 1000 | – | 149 | Cc1cccc(F)c1N1Cc2cnc(N)nc2N([C@H]2CCNC2)C1=O [Example 65, 7-Amino-3-(2-fluoro-6-methyl-phenyl)-1-[(3S)-pyrrolidin-3-yl]-4H-pyrimido[4,5-d]pyrimidin-2-one] |
| 0.278 | 0.907 | 5.92 | 85.7 | 114 | – | 73.8 | Cc1cccc(F)c1N1Cc2cnc(N)nc2N([C@H]2CCCCNC2)C1=O [Example 70, 7-amino-1-[(3S)-azepan-3-yl]-3-(2-fluoro-6-methyl-phenyl)-4H-pyrimido[4,5-d]pyrimidin-2-one] |
| 0.592 | 1.86 | 6.15 | 94.7 | 644 | – | 502 | Cc1cccc(F)c1N1Cc2cnc(N)cc2N([C@H]2CCCN(C)CC2)C1=O [Example 86, 7-amino-3-(2-fluoro-6-methyl-phenyl)-1-[(4S)-1-methylazepan-4-yl]-4H-pyrido[4,3-d]pyrimidin-2-one] |
| 0.396 | 1.1 | 3.05 | 17 | 61.5 | – | 42.6 | CNC1CCCC(N2C(=O)N(c3c(C)cccc3F)Cc3cnc(N)cc32)C1 (stereo not drawn) [Example 57, 7-amino-3-(2-fluoro-6-methyl-phenyl)-1-[3-(methylamino)cyclohexyl]-4H-pyrido[4,3-d]pyrimidin-2-one] |
| 0.19 | 0.604 | 1.46 | 3.28 | 18.9 | – | 42.3 | Cc1cccc(F)c1N1Cc2cnc(N)cc2N([C@H]2CCC[C@@H](N)C2)C1=O (relative stereo) [Example 56, 7-amino-1-[(cis)-3-aminocyclohexyl]-3-(2-fluoro-6-methyl-phenyl)-4H-pyrido[4,3-d]pyrimidin-2-one] |
| 0.356 | 1.08 | 1.98 | 22.6 | 49 | – | 16.3 | Cc1cccc(F)c1N1Cc2cnc(N)nc2N([C@H]2CC[C@@H](N)CC2)C1=O [Example 74, 7-amino-1-(4-aminocyclohexyl)-3-(2-fluoro-6-methyl-phenyl)-4H-pyrimido[4,5-d]pyrimidin-2-one] |
| 6.5 | 9.67 | 85.4 | 488 | > 10000 | 164 | – | Cc1cccc(F)c1N1Cc2cnc(N)cc2N([C@H]2CCN(C)C2)C1=O [Example 79, 7-amino-3-(2-fluoro-6-methyl-phenyl)-1-[(3S)-1-methylpyrrolidin-3-yl]-4H-pyrido[4,3-d]pyrimidin-2-one] |
| 0.94 | 1.3 | 9.92 | 36.8 | 77.2 | – | 56.6 | Cc1cccc(F)c1N1Cc2cnc(N)nc2N([C@@H]2CCCNC2)C1=O [Example 73, 7-amino-3-(2-fluoro-6-methyl-phenyl)-1-[(3R)-3-piperidyl]-4H-pyrimido[4,5-d]pyrimidin-2-one] |
| 3.15 | 5.83 | 41.3 | 261 | > 10000 | – | 127 | Cc1cccc(F)c1N1Cc2cnc(N)nc2N([C@@H]2CCNC2)C1=O [Example 67, 7-amino-3-(2-fluoro-6-methyl-phenyl)-1-[(3R)-pyrrolidin-3-yl]-4H-pyrimido[4,5-d]pyrimidin-2-one] |
